Assay results published in US4760136A, “Chartreusin derivatives and salts thereof” (Ishihara Sangyo Kaisha, Ltd., priority 1984, dated 1988).
Read-outs that look alike come from different tables or passages of the source.

Assays:
P-388 leukemia cells = assay: Antitumor activity: P-388 leukemia cells inoculated intraperitoneally, drug administered intravenously, BDF1 mice; type: in vivo; conditions: Mus musculus, P388, iv, read-out: T/C (%) of MST; for response vs control in vivo at 20 mg/kg: dose b: 20 mg/kg × 3, i.v. on days 1, 5 and 9; for response vs control in vivo at 60 mg/kg: dose e: 60 mg/kg × 3, i.v. on days 1, 5 and 9; for response vs control in vivo at 10 mg/kg: dose a: 10 mg/kg × 3, i.v. on days 1, 5 and 9
Procedure, shortened: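 Drug dosing was intravenous on the first, fifth and ninth days after intraperitoneal inoculation of P-388 leukemia cells (1×10^6 per mouse) into BDF1 mice. Vehicles were physiological saline alone, or saline with small amounts of sodium carboxymethyl cellulose or Tween-80.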

[1] = Acute toxicity, intravenous (once), ddY mice; type: in vivo; conditions: mouse, in vivo, formulated per Preparation Example
Excerpt: In Table 7 are shown acute toxicity values (LD50, mg/kg) in ddY mice in the case of intravenously administering (once) each of the compounds of this invention in the form of preparations shown in the Preparation Examples shown in Table 7.

[2] = dose c: 40 mg/kg × 3, i.v. on days 1, 5 and 9, BDF1 mice, P-388 i.p.
[3] = dose f: 80 mg/kg × 3, i.v. on days 1, 5 and 9, BDF1 mice, P-388 i.p.

Row | SMILES | LD50 ([1]; iv) | response vs control in vivo at 40 mg/kg (P-388 leukemia cells; [2]) | also measured
1 | COC1C(O)C(C)OC(OC2C(Oc3cccc4c(OC(=O)CCCCCNC(=O)C(F)(F)F)c5c(=O)oc6ccc(C)c7c(=O)oc(c34)c5c67)OC(C)C3OC(CC(C)=O)OC32)C1O (stereo not shown) [compound 130] | ≥ 180 mg/kg |  | response vs control in vivo at 160 mg/kg (P-388 leukemia cells; dose i: 160 mg/kg × 3, i.v. on days 1, 5 and 9, BDF1 mice, P-388 i.p.): 141%
2 | COC1C(O)C(C)OC(OC2C(Oc3cccc4c(OC(=O)C(C)CNC(=O)CN)c5c(=O)oc6ccc(C)c7c(=O)oc(c34)c5c67)OC(C)C3OC(c4ccccc4)OC32)C1O (stereo not shown) [Compound No. 3] | ≥ 40 mg/kg | 192% | response vs control in vivo at 20 mg/kg (P-388 leukemia cells; BDF1 mice, P-388 i.p.): 150%
3 | COC1C(O)C(C)OC(OC2C(Oc3cccc4c(OC(=O)C(C)CNC(=O)CNC(=O)OCc5ccccc5)c5c(=O)oc6ccc(C)c7c(=O)oc(c34)c5c67)OC(C)C3OC(c4ccccc4)OC32)C1O (stereo not shown) [compound 74] | ≥ 40 mg/kg |  | response vs control in vivo at 20 mg/kg (P-388 leukemia cells; BDF1 mice, P-388 i.p.): 186%
4 | CCCCC(CC)C(=O)Oc1c2cccc(OC3OC(C)C4OC(C)(C)OC4C3OC3OC(C)C(O)C(OC)C3O)c2c2oc(=O)c3c(C)ccc4oc(=O)c1c2c43 (stereo not shown) [compound 239] | ≥ 60 mg/kg |  | response vs control in vivo at 60 mg/kg (P-388 leukemia cells; BDF1 mice, P-388 i.p.): 153%
5 | COC1C(O)C(C)OC(OC2C(Oc3cccc4c(OC(=O)CCNC=O)c5c(=O)oc6ccc(C)c7c(=O)oc(c34)c5c67)OC(C)C3OC(c4c(F)c(F)c(F)c(F)c4F)OC32)C1O (stereo not shown) [compound 113] | ≥ 40 mg/kg | 138% | 
6 | COC1C(O)C(C)OC(OC2C(Oc3cccc4c(OC(=O)C(C)CNC(=O)C(F)(F)F)c5c(=O)oc6ccc(C)c7c(=O)oc(c34)c5c67)OC(C)C3OC(C)(C)OC32)C1O (stereo not shown) [compound 85] | ≥ 100 mg/kg |  | response vs control in vivo at 80 mg/kg (P-388 leukemia cells; [3]): 157%
7 | CO[C@H]1[C@@H](O)[C@@H](C)O[C@H](O[C@H]2[C@H](Oc3cccc4c(OC(=O)CCCl)c5c(=O)oc6ccc(C)c7c(=O)oc(c34)c5c67)O[C@H](C)[C@@H]3OC(c4ccccc4F)O[C@@H]32)[C@@H]1O (stereo partly shown) [compound 210] | ≥ 60 mg/kg | 186% | 
8 | CO[C@H]1[C@@H](O)[C@@H](C)O[C@H](O[C@H]2[C@H](Oc3cccc4c(OC(=O)CCCCl)c5c(=O)oc6ccc(C)c7c(=O)oc(c34)c5c67)O[C@H](C)[C@@H]3OC(C)(C)O[C@@H]32)[C@@H]1O [compound 204] | ≥ 60 mg/kg | 174% | 
9 | COc1cccc(C(=O)Oc2c3cccc(O[C@@H]4O[C@H](C)[C@@H]5OC(CCc6ccccc6)O[C@@H]5[C@H]4O[C@H]4O[C@H](C)[C@H](O)[C@H](OC)[C@H]4O)c3c3oc(=O)c4c(C)ccc5oc(=O)c2c3c54)c1 (stereo partly shown) [compound 218] | ≥ 80 mg/kg |  | response vs control in vivo at 80 mg/kg (P-388 leukemia cells; [3]): 176%
10 | C/C=C(\C)C(=O)Oc1c2cccc(OC3OC(C)C4OC(c5ccc(OC)cc5)OC4C3OC3OC(C)C(O)C(OC)C3O)c2c2oc(=O)c3c(C)ccc4oc(=O)c1c2c43 (stereo not shown) [compound 234] |  |  | response vs control in vivo at 40 mg/kg (P-388 leukemia cells): 135%; LD50 [1]: ≥ 40 mg/kg
11 | COC1C(O)C(C)OC(OC2C(Oc3cccc4c(OC(=O)CCN5CCOCC5)c5c(=O)oc6ccc(C)c7c(=O)oc(c34)c5c67)OC(C)C3OC(c4ccccc4)OC32)C1O (stereo not shown) [compound 32] | ≥ 40 mg/kg |  | response vs control in vivo at 10 mg/kg (P-388 leukemia cells; BDF1 mice, P-388 i.p.): 146%; response vs control in vivo at 20 mg/kg (P-388 leukemia cells; BDF1 mice, P-388 i.p.): 186%
12 | COC1C(O)C(C)OC(OC2C(Oc3cccc4c(OC(=O)CCNC(=O)c5ccccc5)c5c(=O)oc6ccc(C)c7c(=O)oc(c34)c5c67)OC(C)C3OC(c4ccccc4)OC32)C1O (stereo not shown) [Compound No. 23] | ≥ 40 mg/kg | 233% | response vs control in vivo at 20 mg/kg (P-388 leukemia cells; BDF1 mice, P-388 i.p.): 205%
13 | COC1C(O)C(C)OC(OC2C(Oc3cccc4c(OC(=O)C(Cc5ccccc5)NC(=O)OCc5ccccc5)c5c(=O)oc6ccc(C)c7c(=O)oc(c34)c5c67)OC(C)C3OC(c4ccccc4)OC32)C1O (stereo not shown) [compound 122] | ≥ 40 mg/kg | 135% | 
14 | COC1C(O)C(C)OC(OC2C(Oc3cccc4c(OC(=O)CCNC(C)=O)c5c(=O)oc6ccc(C)c7c(=O)oc(c34)c5c67)OC(C)C3OC(c4cccc(C(F)(F)F)c4)OC32)C1O (stereo not shown) [Compound No. 53] | ≥ 80 mg/kg | 165% | response vs control in vivo at 80 mg/kg (P-388 leukemia cells; [3]): 239%
15 | CCCC(=O)Oc1c2cccc(OC3OC(C)C4OC(c5ccco5)OC4C3OC3OC(C)C(O)C(OC)C3O)c2c2oc(=O)c3c(C)ccc4oc(=O)c1c2c43 (stereo not shown) [compound 228] | ≥ 60 mg/kg |  | response vs control in vivo at 60 mg/kg (P-388 leukemia cells; BDF1 mice, P-388 i.p.): 140%
16 | COC1C(O)C(C)OC(OC2C(Oc3cccc4c(OC(=O)C5CC=CCC5)c5c(=O)oc6ccc(C)c7c(=O)oc(c34)c5c67)OC(C)C3OC(C)(C)OC32)C1O (stereo not shown) [Compound No. 223, 6-O-(3-Cyclohexene-1-Carbonyl)-3',4'-O-Isopropylidene-Chartreusin] | ≥ 60 mg/kg |  | response vs control in vivo at 60 mg/kg (P-388 leukemia cells; BDF1 mice, P-388 i.p.): 172%
17 | COC1C(O)C(C)OC(OC2C(Oc3cccc4c(OC(=O)C(NC(=O)OCc5ccccc5)C(C)C)c5c(=O)oc6ccc(C)c7c(=O)oc(c34)c5c67)OC(C)C3OC(C)(C)OC32)C1O (stereo not shown) [compound 125] | ≥ 100 mg/kg |  | response vs control in vivo at 50 mg/kg (P-388 leukemia cells; dose d: 50 mg/kg × 3, i.v. on days 1, 5 and 9, BDF1 mice, P-388 i.p.): 140%
18 | COC1C(O)C(C)OC(OC2C(Oc3cccc4c(OC(=O)CCNC(=O)c5ccccc5)c5c(=O)oc6ccc(C)c7c(=O)oc(c34)c5c67)OC(C)C3OC(c4ccc(Br)cc4)OC32)C1O (stereo not shown) [compound 123] | ≥ 40 mg/kg | 135% | 
19 | COC1C(O)C(C)OC(OC2C(Oc3cccc4c(OC(=O)CCNC(=O)CNC(=O)OCc5ccccc5)c5c(=O)oc6ccc(C)c7c(=O)oc(c34)c5c67)OC(C)C3OC(c4ccccc4)OC32)C1O (stereo not shown) [compound 75] | ≥ 40 mg/kg | 197% | response vs control in vivo at 20 mg/kg (P-388 leukemia cells; BDF1 mice, P-388 i.p.): 153%
20 | CCC1OC2C(C)OC(Oc3cccc4c(OC(=O)CCNC(=O)C(F)(F)F)c5c(=O)oc6ccc(C)c7c(=O)oc(c34)c5c67)C(OC3OC(C)C(O)C(OC)C3O)C2O1 (stereo not shown) [compound 100] | ≥ 180 mg/kg |  | response vs control in vivo at 80 mg/kg (P-388 leukemia cells; [3]): 157%
21 | COC1C(O)C(C)OC(OC2C(Oc3cccc4c(OC(=O)C(C)CNC(=O)CN(C)C)c5c(=O)oc6ccc(C)c7c(=O)oc(c34)c5c67)OC(C)C3OC(c4ccccc4)OC32)C1O (stereo not shown) [Compound No. 4] | ≥ 40 mg/kg | 216% | response vs control in vivo at 20 mg/kg (P-388 leukemia cells; BDF1 mice, P-388 i.p.): 184%
22 | C/C=C/C(=O)Oc1c2cccc(OC3OC(C)C4OC5(CCCCC5)OC4C3OC3OC(C)C(O)C(OC)C3O)c2c2oc(=O)c3c(C)ccc4oc(=O)c1c2c43 (stereo not shown) [compound 221] |  |  | response vs control in vivo at 80 mg/kg (P-388 leukemia cells): 168%; LD50 [1]: ≥ 80 mg/kg
23 | COC1C(O)C(C)OC(OC2C(Oc3cccc4c(OC(=O)CCC5CCCCC5)c5c(=O)oc6ccc(C)c7c(=O)oc(c34)c5c67)OC(C)C3OC(C)(C)OC32)C1O (stereo not shown) [Compound No. 240, 6-O-(3-Cryclohexyl-Propionyl)-3',4'-O-Isopropylidene-Chartreusin] | ≥ 60 mg/kg |  | response vs control in vivo at 60 mg/kg (P-388 leukemia cells; BDF1 mice, P-388 i.p.): 158%
24 | CCCCCC(=O)Oc1c2cccc(OC3OC(C)C4OC(c5ccccc5)OC4C3OC3OC(C)C(O)C(OC)C3O)c2c2oc(=O)c3c(C)ccc4oc(=O)c1c2c43 (stereo not shown) [Compound No. 196, 6-O-(n-Hexanoyl)-3',4'-O-Benzylidene-Chartreusin] | ≥ 80 mg/kg | 208% | 
25 | COC1C(O)C(C)OC(OC2C(Oc3cccc4c(OC(=O)CNC(=O)CNC(=O)CNC(=O)OCc5ccccc5)c5c(=O)oc6ccc(C)c7c(=O)oc(c34)c5c67)OC(C)C3OC(c4cccc(F)c4)OC32)C1O (stereo not shown) [compound 116] | ≥ 30 mg/kg | 130% | 
26 | COC1C(O)C(C)OC(OC2C(Oc3cccc4c(OC(=O)CCNC=O)c5c(=O)oc6ccc(C)c7c(=O)oc(c34)c5c67)OC(C)C3OC(c4ccco4)OC32)C1O (stereo not shown) [compound 84] | ≥ 80 mg/kg | 145% | response vs control in vivo at 80 mg/kg (P-388 leukemia cells; [3]): 208%
27 | COc1cccc(C(=O)Oc2c3cccc(O[C@@H]4O[C@H](C)[C@@H]5OC(C)(C)O[C@@H]5[C@H]4O[C@H]4O[C@H](C)[C@H](O)[C@H](OC)[C@H]4O)c3c3oc(=O)c4c(C)ccc5oc(=O)c2c3c54)c1 [Compound No. 184] | ≥ 80 mg/kg | 162% | response vs control in vivo at 80 mg/kg (P-388 leukemia cells; [3]): 199%
28 | COC1C(O)C(C)OC(OC2C(Oc3cccc4c(OC(=O)C5CC5)c5c(=O)oc6ccc(C)c7c(=O)oc(c34)c5c67)OC(C)C3OC(c4ccccc4)OC32)C1O (stereo not shown) [compound 232] | ≥ 40 mg/kg |  | response vs control in vivo at 10 mg/kg (P-388 leukemia cells; BDF1 mice, P-388 i.p.): 146%
29 | COC1C(O)C(C)OC(OC2C(Oc3cccc4c(OC(=O)CC(C)NC(=O)C(F)(F)F)c5c(=O)oc6ccc(C)c7c(=O)oc(c34)c5c67)OC(C)C3OC(C)(C)OC32)C1O (stereo not shown) [Compound No. 51] | ≥ 100 mg/kg | 136% | response vs control in vivo at 80 mg/kg (P-388 leukemia cells; [3]): 207%
30 | COC1C(O)C(C)OC(OC2C(Oc3cccc4c(OC(=O)CC[S+](C)[O-])c5c(=O)oc6ccc(C)c7c(=O)oc(c34)c5c67)OC(C)C3OC(c4ccccc4)OC32)C1O (stereo not shown) [Compound No. 150] | ≥ 40 mg/kg | 205% | response vs control in vivo at 20 mg/kg (P-388 leukemia cells; BDF1 mice, P-388 i.p.): 200%
